Measurements: ChEMBL document CHEMBL3137667, “[Drug-induced liver injury; fourteenth updated edition of the bibliographic database of liver injuries and related drugs]” (Gastroenterol Clin Biol, 2004)

Columns and labels:
[1] = human
[2] = human; remark: listed apart in the source
[3] = human, serum, 4383 h
[4] = human; remark: listed apart in the source
[5] = human; remark: listed apart in the source
[6] = human; remark: listed apart in the source
[7] = human, serum
[8] = human; remark: listed apart in the source
[9] = Highest frequency of acute liver toxicity observed during clinical trials, expressed as a percentage. [column '% AIGUE' in source]; details: human
[10] = human, serum; remark: listed apart in the source
[11] = human; remark: listed apart in the source
[12] = human; remark: listed apart in the source
[13] = Highest frequency of moderate liver toxicity observed during clinical trials, expressed as a percentage. [column '% BIOL' in source]; details: human
[14] = Times to onset, minimal and maximal, observed in the indexed observations. [column 'DELAI' in source]; details: human
[15] = human; remark: listed apart in the source
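For Hepatotoxicity (association with vascular disease) in this document: count of indexed literature references reporting vascular liver injury in humans, e.g. peliosis hepatitis, hepatic veno-occlusive disease or Budd-Chiari syndrome.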
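For Hepatotoxicity (benign tumour) in this document: value is a count of indexed literature references citing a benign tumour confirmed by histopathology.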
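For Hepatotoxicity (choleostasis) in this document: human cholestatic liver injury, shown by histopathology or by peak ALT or AST elevation over alkaline phosphatase ratio below 2, value counts indexed literature reports.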
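For Hepatotoxicity (chronic liver disease) in this document: chronic liver injury confirmed by histopathology or persistently raised serum aminotransferase activity beyond 6 months, value given as the count of indexed literature references.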
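For Hepatotoxicity (cirrhosis) in this document: value is a count of indexed literature references reporting cirrhosis confirmed by histopathology.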
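For Hepatotoxicity (cytolytic) in this document: human cytolytic liver injury, shown by histopathology or by a ratio above 5 of peak ALT or AST elevation to alkaline phosphatase elevation, value counts indexed references.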
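For Hepatotoxicity (granulomatous hepatitis) in this document: value is a count of indexed literature references reporting granulomatous liver disease confirmed by histopathology.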
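For Hepatotoxicity (malignant tumour) in this document: malignant tumour confirmed by histopathology, value gives the count of indexed literature references reporting it.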
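For Hepatotoxicity (severe hepatitis) in this document: human clinical data: severe hepatitis, meaning potentially life-threatening liver failure or clinically observed cases, the value counts how many indexed literature references report it.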
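For Hepatotoxicity (steatosis) in this document: steatosis confirmed by histopathology, value is the count of indexed references.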

SMILES | Hepatotoxicity (choleostasis) [1] | Hepatotoxicity (granulomatous hepatitis) [2] | Hepatotoxicity (chronic liver disease) [3] | Hepatotoxicity (cirrhosis) [4] | Hepatotoxicity (malignant tumour) [5] | Hepatotoxicity (benign tumour) [6] | Hepatotoxicity (acute) [7] | Hepatotoxicity (steatosis) [8] | Hepatotoxicity (acute) [9] [%] | Hepatotoxicity (moderate) [10] | Hepatotoxicity (cytolytic) [11] | Hepatotoxicity (association with vascular disease) [12] | Hepatotoxicity (moderate) [13] [%] | Hepatotoxicity (time to onset) [14] | Hepatotoxicity (severe hepatitis) [15]
CC(=O)[C@H]1CC[C@H]2[C@@H]3CC[C@H]4C[C@H](O)CC[C@]4(C)[C@H]3C(=O)C[C@]12C.C[C@]12CC[C@@H](O)C[C@@H]1CC[C@H]1[C@@H]3CC[C@H](C(=O)CO)[C@@]3(C)CC(=O)[C@@H]12 | 0 | 0 | 0 | 0 | 0 | 0 | 0 | 0 | 0 | 1 | 0 | 0 | 15 | 3 days - 5 days | 0
CC(C)=CCN1CC[C@]2(C)c3cc(O)ccc3C[C@H]1[C@H]2C [(+)-PENTAZOCINE] | 0 | 0 | 0 | 0 | 0 | 0 | 2 | 0 | 0 | 0 | 0 | 0 | 0 | < 3 months | 0
COc1ccc2c(c1)c(CC(=O)OCC(=O)O)c(C)n2C(=O)c1ccc(Cl)cc1 [ACEMETACIN] | 1 | 0 | 0 | 0 | 0 | 0 | 1 | 0 | 0 | 0 | 0 | 0 | 0 | 12 weeks | 0
CC(=O)Nc1nnc(S(N)(=O)=O)s1 [ACETAZOLAMIDE] | 1 | 0 | 0 | 0 | 0 | 0 | 1 | 1 | 0 | 0 | 0 | 0 | 0 | 1 month | 1
C[S+](CC[C@H](N)C(=O)[O-])C[C@H]1O[C@@H](n2cnc3c(N)ncnc32)[C@H](O)[C@@H]1O (stereo not given in full) [ADEMETIONINE] | 0 | 0 | 0 | 0 | 0 | 0 | 1 | 0 | 0 | 2 | 1 | 0 | 5 | 3 days | 0
COc1cc2nc(N(C)CCCNC(=O)C3CCCO3)nc(N)c2cc1OC (stereo not given) [ALFUZOSIN] | 0 | 0 | 0 | 0 | 0 | 0 | 1 | 0 | 0 | 0 | 1 | 0 | 0 | 9 months | 0
C=CCNc1nc(NCC=C)nc(N2CCN(C(c3ccc(F)cc3)c3ccc(F)cc3)CC2)n1 [ALMITRINE] | 0 | 0 | 0 | 0 | 0 | 0 | 1 | 0 | 0 | 0 | 1 | 0 | 0 | 1 week | 0
Cc1cn([C@H]2C[C@H](F)[C@@H](CO)O2)c(=O)[nH]c1=O [ALOVUDINE] | 0 | 0 | 0 | 0 | 0 | 0 | 1 | 0 | 3.3 | 0 | 0 | 0 | 0 | < 3 months | 1
N=C(N)NC(=O)c1nc(Cl)c(N)nc1N [AMILORIDE] | 0 | 0 | 0 | 0 | 0 | 0 | 0 | 0 | 0 | 2 | 0 | 0 | 1.1 | 2 weeks - 6 months | 0
Nc1ccc(C(=O)[O-])cc1.[K+] [AMINOBENZOATE POTASSIUM] | 0 | 0 | 0 | 0 | 0 | 0 | 1 | 0 | 0 | 1 | 1 | 0 | 38 | 2 months | 0
Nc1ccc(C(=O)O)cc1 [AMINOBENZOIC ACID] | 0 | 0 | 0 | 0 | 0 | 0 | 3 | 0 | 0 | 1 | 2 | 0 | 35 | 4 weeks - 2 months | 0
CCN1CCCC1CNC(=O)c1cc(S(=O)(=O)CC)c(N)cc1OC (stereo not given) [AMISULPRIDE] | 0 | 0 | 0 | 0 | 0 | 0 | 0 | 0 | 0 | 1 | 0 | 0 | 0 | 2 weeks | 0
CC(=O)Nc1ccc(/C=N/NC(N)=S)cc1 [AMITHIOZONE] | 2 | 0 | 0 | 1 | 0 | 0 | 6 | 2 | 2.5 | 4 | 5 | 0 | 18 | 1.5 months - 6 months | 2
CN1CCN(C(=S)Nc2ccc(Nc3ccc([N+](=O)[O-])cc3)cc2)CC1 [AMOCARZINE] | 0 | 0 | 0 | 0 | 0 | 0 | 0 | 0 | 0 | 1 | 0 | 0 | 0 | 4 days - 2 months | 0
